Reference: patent US20250051337A1 (priority 2021, published 2025)
Values after ≈ are worked out from the molar mass of the structure shown. Read-outs that look alike come from different tables or passages of the source. Marks after values point to notes of the source that are not given here.

Tests used:
STK3 [1] = target: T1, STK3 (Homo sapiens (Human), UniProt Q13188); test: Thermal shift assay (ThermoFluor differential scanning fluorimetry); format: binding; conditions: for ΔTm at 10 µM: read-out: ΔTm; for Tm shift: Tm of STK3 or STK4, text statement
Procedure: Temperature-dependent protein unfolding profiles were measured using a Real-Time PCR Mx3005p machine (Stratagene: San Diego, CA, USA). Data evaluation and melting temperature calculation were performed using Protein Thermal Shift™ Software v1.2.
To further evaluate binding of these compounds to STK3/4, differential scanning fluorimetry (protein thermal shift using ThermoFluor technology) assay was used to benchmark the capacity to stabilize the kinase domain. The melting temperature (Tm) of STK3 or STK4 was measured in the presence of vehicle (DMSO) or 6, 11 or 23.

[2] = In vivo plasma and liver concentrations, 20 mg/kg intraperitoneal; conditions: female, C57BL/6J, mouse, ip
Procedure: (§1) All animal procedures were approved by the Sanford Burnham Prebys Medical Discovery Institute Institutional Animal Care and Use Committee and were performed according to the NIH guidelines for the Care and Use of Laboratory Animals. Adult female C57BL/6J mice were purchased from Jackson Laboratories and housed with free access to food and water on a 12 h light/dark cycle. Compounds were formulated in 5% DMSO, 10% Tween-80, and 85% H2O and injected intraperitoneally at 10 or 20 mg/kg. Blood samples were collected retro-orbitally at the indicated times and plasma was prepared by centrifugation. Livers were collected post mortem at the indicated times.
(§2) For quantification of compound, plasma samples were extracted with acetonitrile: water 4:1 with 0.1% formic acid containing indomethacin as an internal standard. Samples were centrifuged and the supernatants were diluted with acetonitrile: water and analyzed by LC-MS/MS using a Shimadzu Nexera X2 High-performance liquid chromatography (HPLC) (Shimadzu Scientific Instruments: Kyoto, Japan) coupled to an AB Sciex 6500 QTRAP (AB Sciex LLC: Toronto, Canada).
(§3) Adult female C57BL/6 mice (n=3/group) were intraperitoneally injected with vehicle or test compound (20 mg/kg), and blood samples and livers were collected at 30 min and 1 h post-injection, respectively. Plasma concentrations of all 13 compounds were >1.4 μM at 30 min after injection, and 10 compounds had liver concentrations >1.0 μM at 1 h after injection, as measured by LC-MS/MS, with particularly high plasma concentrations obtained with compounds 11 (15.9 μM), 16 (11.6 μM) and 105 (8.7 μM) (Table 5). To evaluate target engagement in vivo, the total and phosphorylated MOB1 levels in livers collected at 1 h post-injection was examined.
Tween 80 and water and were administered to mice by intraperitoneal injection. Blood samples and livers were collected at 30 min and 1 h post-dose, respectively. Plasma concentrations and relative pMOB1 levels were determined by LC-MS/MS and western blot analysis, respectively. (n=3).

Kinetic solubility = format: physicochemical
Source text: Data is represented as an average of a single experiment preformed in duplicate. Atenolol was used as an internal standard.

STK3 [3] = target: T1, STK3; test: ADP-Glo kinase assay, STK3; format: biochemical; conditions: ADP-Glo, 50 μM ATP; read-out: STK3 IC50
Summary of the method: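 Full-length recombinant human STK3 (50 ng) phosphorylated 250 μg/mL myelin basic protein, and full-length STK4 (50 ng) phosphorylated 300 μg/mL Axltide, both at 50 μM ATP; ADP formed detected by ADP-Glo. Three experiments, each in triplicate.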

STK3 [4] = target: T1, STK3; test: NanoBRET intracellular kinase assay, STK3; format: cell-based; conditions: NanoBRET, transfected HEK293 cells, 2 h; read-out: STK3: IC50
Procedure: Full-length STK3, STK4, and LRRK2 kinase was cloned in-frame with a C-terminal NanoLuc-fusion (Promega: Madison, WI, USA) and the plasmid was transfected into HEK293T cells using FuGENE HD (Promega, E2312). […] After 2 h at 37° C. in a 5% CO2 atmosphere, NanoBRET NanoGlo Substrate+Extra-cellular NanoLuc Inhibitor (Promega, N2540) was added, and filtered luminescence was measured on a PHERAstar plate reader (BMG Labtech; Ortenberg, Germany) equipped with a lumi-nescence filter pair (450 nm BP filter (donor) and 610 nm LP filter (acceptor)).
This assay measured the apparent affinity of test compounds by competitive displacement of the NanoBRET™ tracer, reversibly bound to a NanoLuc® luciferase-kinase fusion in cells. To evaluate potential off-target activity of the inhibitors, the inhibition of LRRK2 in live cells by the STK3/4 inhibitors compounds described herein were measured. […] A 50 nM tracer and these compounds were added to cells and incubated for 2 h.

[5] = test system: Thr35-phosphorylated MOB1 in liver; test: Western blot analysis of p-MOB1 in mouse liver; format: in vivo; conditions: mice; for levels of Thr35-phosphorylated MOB1 in liver vs vehicle / Relative decrease in liver p-MOB1 level: 20 mg/kg intraperitoneal; for levels of Thr35-phosphorylated MOB1 in liver vs vehicle: 1 h, p<0.002; for Relative decrease in liver p-MOB1 level: 1 h post-dose
Procedure: […] Approximately 50 mg of liver tissue was placed in 1 mL Radioimmunoprecipitation assay (RIPA) buffer (50 mM Tris-HCl pH 8.0, 150 mM NaCl, 1.0% IGEPAL® CA-630, 0.5% sodium deoxycholate, and 0.1% SDS) containing phosphatase and protease inhibitor cocktails, homogenized with a PowerGen 125 homogenizer (Fisher Scientific), and then sonicated for 10 s. Homogenized tissues were centrifuged at 14,000×g at 4° C. for 20 min and the supernatants were recovered.
Protein concentrations in the supernatants were determined using a BCA assay (Pierce/Thermo Scientific). Proteins were separated on Novex™ WedgeWell™ 4-20% Tris-Glycine Gels (Invitrogen: Carlsbad, CA, USA) and transferred to polyvinylidene difluoride (Trans-Blot® Turbo™ Transfer Pack) membranes. Membranes were blocked in Tris-buffered saline Tween® 20 (50 mM Tris-HCl pH 7.6, 150 mM NaCl, 0.05% Tween 20: TBST) containing 3% Bovine Serum Albumin (BSA) for 1 h at room temperature and incubated overnight at 4° C. with primary antibodies as follows: 1:1000 dilution of anti-MOB1 (rabbit monoclonal antibody [mAb]#13730), 1:1000 anti-phospho-MOB1 Thr35 (rabbit mAb #8699), or 1:5000 anti-GAPDH (rabbit mAb #2118: all from Cell Signaling Technology: Danvers, MA, USA). Blots were rinsed three times with TBST and then incubated in 5% nonfat milk containing horseradish peroxidase (HRP)-conjugated mouse anti-rabbit IgG secondary Ab (Cell Signaling Technology) for 1 h at RT. Blots were washed three times with TBST, developed using Pierce® ECL Western Blotting reagent, and imaged and analyzed using with ImageJ software. Quantitative data are expressed as the level of phosphorylated MOB1 normalized to total MOB1.
as §3

in vivo = conditions: female, C57BL/6J, mouse, ip, 10 mg/kg
Procedure: as §1, §2

[6] = FaSSGF, fassgf or other biorelevant, kinetic from dmso stock, FaSSGF, read-out: Solubility, FASSGF
[7] = FaSSIF, kinetic from dmso stock, FaSSIF, read-out: Solubility, FaSSIF
[8] = PBS pH 7.4, pH 7.4, aqueous buffer, kinetic from dmso stock, PBS pH 7.4, read-out: Solubility, Buffer (pH = 7.4)
[9] = mice, 20 mg/kg intraperitoneal, 30 min post-dose, read-out: Plasma concentration

T1 sequence (Q13188 whole entry): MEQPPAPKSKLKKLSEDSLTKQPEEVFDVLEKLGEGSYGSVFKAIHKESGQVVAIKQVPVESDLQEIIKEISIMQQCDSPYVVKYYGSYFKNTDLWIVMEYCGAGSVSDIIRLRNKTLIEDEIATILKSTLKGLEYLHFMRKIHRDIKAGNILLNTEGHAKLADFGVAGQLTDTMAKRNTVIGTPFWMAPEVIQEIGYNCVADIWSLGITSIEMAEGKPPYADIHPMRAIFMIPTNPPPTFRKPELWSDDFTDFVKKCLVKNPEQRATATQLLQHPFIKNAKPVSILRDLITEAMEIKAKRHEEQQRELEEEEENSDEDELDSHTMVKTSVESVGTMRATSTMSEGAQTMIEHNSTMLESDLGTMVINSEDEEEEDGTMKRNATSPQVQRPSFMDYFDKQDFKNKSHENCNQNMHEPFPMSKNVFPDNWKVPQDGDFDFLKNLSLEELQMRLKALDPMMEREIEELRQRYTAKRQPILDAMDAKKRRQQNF

Row | SMILES | ΔTm at 10 µM (STK3 [1]) | concentration at 30 min ([2]; 20 mg/kg) | concentration at 1 h ([2]; 20 mg/kg) | solubility (Kinetic solubility; [6]) | solubility (Kinetic solubility; [7]) | solubility (Kinetic solubility; [8]) | IC50 (STK3 [3]) | IC50 (STK3 [4]) | concentration at 30 min [2, 9] | inhibition of MOB1 phosphorylation in liver ([5]; 10 mg/kg intraperitoneal, 1, 2, 3 h) | levels of Thr35-phosphorylated MOB1 in liver vs vehicle [5] | AUC(0-t) (in vivo) | Cmax (in vivo) | Tmax (in vivo) | half-life (in vivo) | Tm shift (STK3 [1]) | Relative decrease in liver p-MOB1 level [5] | solubility (Kinetic solubility; PBS pH 7.4, read-out: Solubility, Buffer (pH = 7.4))
1 | Clc1cccc(-c2c[nH]c3ncnc(N4CCOCC4)c23)c1 [Compound 6, 4-(5-(3-Chlorophenyl)-7H-pyrrolo[2,3-d]pyrimidin-4-yl)morpholine] | 8.1 °C | 6.9 µM | 15.3 µM | 353 µM (≈ 111 µg/mL) | 35.7 µM (≈ 11.2 µg/mL) | 9.2 µM (≈ 2.9 µg/mL) |  |  |  |  |  |  |  |  |  |  |  | 
2 | NC(=O)c1cccc(-c2c[nH]c3ncnc(N4CCOCC4)c23)c1 [Compound 11, 3-(4-Morpholino-7H-pyrrolo[2,3-d]pyrimidin-5-yl)benzamide] | 7.4 °C |  | 23.2 µM | 430 µM (≈ 139 µg/mL) | 136 µM (≈ 43.8 µg/mL) | 145 µM (≈ 46.9 µg/mL) | < 1 µM | < 1 µM | 15.9 µM | maximum inhibition of MOB1 phosphorylation observed at 1 h | significant reduction | 9.5 µM·h | 10.9 µM | 30 min | 42 min |  |  | 
3 | OC1CCN(c2ncnc3[nH]cc(-c4cccc(Cl)c4)c23)CC1 [Compound 16, 1-(5-(3-Chlorophenyl)-7H-pyrrolo[2,3-d]pyrimidin-4-yl)piperidin-4-ol] | 8 °C |  | 5.9 µM | 352 µM (≈ 116 µg/mL) | 294 µM (≈ 96.5 µg/mL) | 189 µM (≈ 62.1 µg/mL) | < 1 µM | < 1 µM | 11.6 µM |  | significant reduction | 4.3 µM·h | 5.8 µM | 15 min | 594 min | comparable results | 78%** | 188.5 µM (≈ 62 µg/mL)
4 | Clc1cccc(-c2c[nH]c3nccc(N4CCOCC4)c23)c1 [Compound 23, 4-(3-(3-chlorophenyl)-1H-pyrrolo[2,3-b]pyridin-4-yl)morpholine] | 7.9 °C | 7.1 µM | 16.6 µM | 372 µM (≈ 117 µg/mL) | 7 µM (≈ 2.2 µg/mL) | < 0.6 µM | < 1 µM | < 1 µM |  |  |  |  |  |  |  | > 7.4 °C | 33% | 
5 | CC(=O)NC1CCN(c2ncnc3[nH]cc(-c4cccc(Cl)c4)c23)CC1 [Compound 105, N-(1-(5-(3-chlorophenyl)-7H-pyrrolo[2,3-d]pyrimidin-4-yl)piperidin-4-yl)acetamide] |  | 8.7 µM | 4.6 µM |  |  |  | < 1 µM | < 1 µM |  |  | significant reduction | 8.1 µM·h | 11.8 µM | 15 min | 318 min |  | 99%** | 
